ChEMBL document CHEMBL1156336, “Synthesis, X-ray crystal structure study and antitumoral evaluations of 5,6-disubstituted pyrimidine derivatives” (Bioorg Med Chem, 2010)

What was measured:
SW-620 [1] = test: Antitumor activity against human SW620 cells after 72 hrs by MTT assay; settings: SW-620, 72 h
MCF7 = test: Antitumor activity against human MCF7 cells after 72 hrs by MTT assay; settings: MCF7, 72 h
NCI-H460 = test: Antitumor activity against human H460 cells after 72 hrs by MTT assay; settings: NCI-H460, 72 h
MOLT-4 = test: Antitumor activity against human MOLT4 cells after 72 hrs by MTT assay; settings: MOLT-4, 72 h
HCT-116 = test: Antitumor activity against human HCT116 cells after 72 hrs by MTT assay; settings: HCT-116, 72 h
SW-620 [2] = test: Selectivity ratio IC50 of 5-fluorouracil to compound for human SW620 cells; format: functional

Row | Compound | IC50 (SW-620 [1]) [µM] | IC50 (MCF7) [µM] | IC50 (NCI-H460) [µM] | IC50 (MOLT-4) [µM] | IC50 (HCT-116) [µM] | Ratio IC50 (SW-620 [2])
1 | Cc1[nH]c(=O)[nH]c(=O)c1CCO | > 100 | > 100 | > 100 | > 100 | > 100 | –
2 | CC(=O)OCCc1c(C)nc(Cl)nc1Cl | > 100 | > 100 | > 100 | > 100 | > 100 | –
3 | COc1nc(C)c(CCO)c(OC)n1 | > 100 | > 100 | > 100 | > 100 | > 100 | –
4 | CC(=O)OCCc1c(C)[nH]c(=O)[nH]c1=O | > 100 | > 100 | > 100 | > 100 | > 100 | –
5 | COc1nc(C)c2c(n1)OCC2 | > 100 | > 100 | > 100 | – | > 100 | –
6 | COc1nc(C)c(CCOC(C)=O)c(OC)n1 | 44 | 65 | 47 | – | 40 | –
7 | COc1nc(Cl)nc(C)c1CCOC(C)=O | > 100 | > 100 | > 100 | > 100 | > 100 | –
8 | COc1nc(Cl)nc(C)c1CCO | > 100 | > 100 | > 100 | – | > 100 | –
9 | COc1ccc(C(OCCc2c(C)nc(OC)nc2OC)(c2ccccc2)c2ccccc2)cc1 | 20 | 6 | 50 | 5 | 4 | –
10 | COc1nc(C)c(CCF)c(OC)n1 | > 100 | > 100 | > 100 | – | > 100 | –
11 | COc1nc(Cl)nc(C)c1CCF | > 100 | > 100 | > 100 | – | > 100 | –
12 | Cc1nc(Cl)nc(Cl)c1CCCl | 0.4 | 8 | 3 | 5 | 2 | 20
13 | COc1nc(C)c(CCCl)c(OC)n1 | > 100 | > 100 | > 100 | > 100 | > 100 | –
14 | COc1nc(CC(O)COCc2ccccc2)c(CCCl)c(OC)n1 (configuration not stated) | 20 | 26 | 76 | 19 | 16 | –
15 | O=c1[nH]c(CC(O)COCc2ccccc2)c(CCCl)c(=O)[nH]1 (configuration not stated) | > 100 | > 100 | > 100 | > 100 | > 100 | –
16 | Cc1[nH]c(=O)[nH]c(=O)c1CCCl | > 100 | > 100 | > 100 | > 100 | > 100 | –
17 | Nc1ccn([C@@H]2O[C@H](CO)[C@@H](O)[C@@H]2O)c(=O)n1 [CYTARABINE] | 30 | ≥ 100 | 0.1 | 1 | 0.1 | –
18 | O=c1[nH]cc(F)c(=O)[nH]1 [FLUOROURACIL] | – | – | – | 0.03 | – | –
